The text below walks through data of article PMC9411704, “Assessment of the Carcinogenic Potential of Pretomanid in Transgenic Tg.rasH2 Mice” (International Journal of Toxicology, 2022).

In data set [1] the test system is CD-1(ICR) BR mice, bone marrow erythrocytes. The data set is described as follows: Bone marrow micronucleus assay in mice. The format is in vivo. The method, then:
Groups of male CD-1®(ICR) BR mice were given single oral doses of vehicle (0.4% CMC), positive control article, or pretomanid at 125, 500 or 2000 mg/kg and then were euthanized approximately 24 or 48 hours later to harvest femoral bone marrow. Bone marrow was mounted on slides and stained with May-Grünwald solution and Giemsa. For each mouse, 500 red blood cells were examined to determine the ratio of immature red blood cells (polychromatophilic erythrocytes or PCEs) to mature red blood cells (normochromatophilic erythrocytes of NCEs) and 2000 PCEs were examined to determine the ratio of micronucleated PCEs (mnPCEs) to normal PCEs.
The mean PCE-to-NCE ratios in various groups were compared to reach conclusions about assay validity and effects on erythropoiesis. The mean mnPCE-to-PCE ratios in various groups were compared to reach conclusions about assay validity and clastogenicity. Comparisons were made using an analysis of variance on untransformed mnPCE-to-PCE ratios for each mouse and on untransformed PCE-to-NCE ratios when the variances were homogeneous. Ranked proportions were used for heterogeneous variances. […] Comparisons were made at the 5% probability level.

Another data set deals with CHO-K1 cells. The data set is described as follows: Chromosome aberration assay in CHO cells. The method, then:
CHO-K1 cells (American Type Culture Collection) were exposed to pretomanid at 22.5 to 360 μg/mL for 4 hours with and without added S9 mix and for 20 hours without added S9 mix. All cells were harvested 20 hours after treatment initiation. The assay was performed using standard procedures, [13] including duplicate cultures and appropriate negative and positive controls. Under each set of conditions, three test concentrations were evaluated. The highest was the lowest precipitating concentration, and two additional lower concentrations also were evaluated.
After incubation, cells were harvested and placed on slides, which were examined microscopically to determine relative mitotic index and to evaluate metaphase spreads for structural or numerical chromosome aberrations. Where possible, 200 metaphase spreads were evaluated. The mean numbers of aberrations in various cultures were compared to reach conclusions about assay validity and clastogenic potential.

Take `O=[N+]([O-])c1cn2c(n1)OC[C@@H](OCc1ccc(OC(F)(F)F)cc1)C2` [Pretomanid, (6S)-2-nitro-6-{[4-(trifluoromethoxy)benzyl]oxy}-6,7-dihydro-5H-imidazo[2,1-b][1,3]oxazine]: in data set [1] (any dose level (125, 500, 2000 mg/kg), 24 or 48 h), the mnPCE-to-PCE ratio entry is on record as “did not significantly increase”. In addition, the “Effect on erythropoiesis (PCE:NCE ratio)” value in data set [1] (single oral 125, 500 or 2000 mg/kg) is recorded as “did not affect erythropoiesis”. Further, in data set [1] (single oral doses up to 2000 mg/kg), the “Clastogenic potential in vivo” value is “negative”. In addition, the “Cytotoxicity in CHO cells” value in the data set with CHO-K1 cells (22.5 to 360 μg/mL, 4 h ±S9, 20 h −S9) is given as “no cytotoxicity was observed”. The “Frequency of chromosome aberrations” value in the data set on CHO-K1 cells (any concentration, P>0.05) is given as “did not significantly increase”. Moreover, the “Clastogenic potential in mammalian cells in vitro” value in the data set on CHO-K1 cells (up to 360 μg/mL, 4 h ±S9, 20 h −S9) is on record as “negative”.
